{"source": "patent US5128347A", "about": "“Glycosidase inhibiting 1,4-dideoxy-4-fluoronojirimycin” (Monsanto Company, priority 1990, dated 1992)", "format_in_all_cases": "biochemical", "key": {"yeast α-glucosidase": {"biological_target": "T1, yeast α-glucosidase (Saccharomyces cerevisiae, UniProt P53341)", "T1 construct": "purchased Sigma", "T1 sequence (P53341 whole entry)": "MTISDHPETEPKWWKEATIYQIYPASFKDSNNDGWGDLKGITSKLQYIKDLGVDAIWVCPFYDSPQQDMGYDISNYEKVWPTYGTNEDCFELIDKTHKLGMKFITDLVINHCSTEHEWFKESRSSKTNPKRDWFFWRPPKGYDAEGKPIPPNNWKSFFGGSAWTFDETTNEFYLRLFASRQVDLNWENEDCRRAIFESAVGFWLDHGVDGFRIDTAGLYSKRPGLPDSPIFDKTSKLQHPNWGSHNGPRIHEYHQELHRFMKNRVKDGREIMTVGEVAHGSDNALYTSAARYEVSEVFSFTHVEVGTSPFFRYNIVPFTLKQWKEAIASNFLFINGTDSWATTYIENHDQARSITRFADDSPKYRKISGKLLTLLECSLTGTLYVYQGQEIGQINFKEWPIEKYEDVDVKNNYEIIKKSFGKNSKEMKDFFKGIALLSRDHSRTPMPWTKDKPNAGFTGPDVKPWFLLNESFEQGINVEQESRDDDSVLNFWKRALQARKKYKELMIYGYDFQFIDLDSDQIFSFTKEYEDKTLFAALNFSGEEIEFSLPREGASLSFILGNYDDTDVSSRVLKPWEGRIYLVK", "experiment": "α-Glucosidase inhibition assay, pH 7.4", "conditions": "5 mM test compound, read-out: ALPHA GLUCOSIDASE pH 7.4 (enzyme inhibition)", "protocol": "(§1) The glycosidase inhibition activity is determined by modifying an assay procedure described in Evans et al, Phytochemistry, 22, pp. 768-770 (1983). More particularly, yeast α-glucosidase and almond β-glucosidase activities were measured by the Evans et al method which was modified by assaying activities at pH 7.4 in N-2-hydroxyethylpiperazine-N-2-ethane sulfonic acid (HEPES) buffer, measuring in 96 well microtiter plates, and including 10% DMSO in control and test samples.\n(§2) The release of p-nitrophenol from the substrate p-nitrophenylglycoside was measured spectrophotometrically in the presence and absence of test compound. Each assay included a known inhibitor of the enzyme as a standard. […]\nTo 100 ul 50 mM HEPES buffer, pH 7.4, in a microtiter plate, 20 ul test compound in DMSO (DMSO alone in control)and 40 ul (0.013 units) yeast α-glucosidase (Sigma) in HEPES buffer were added and pre-incubated at room temperature 15 minutes. 40 ul 1.25 mM p-nitrophenyl-α-D-glucopyranoside (Sigma) in HEPES buffer, as substrate was added and the absorbance change at 405 nm was monitored in a Biotek EIA Autoreader. Absorption change was measured at 15 to 25 minutes (reaction was linear for at least 30 minutes). […] IC50 values were determined from the linear portion of the log concentration vs percent inhibition curve obtained from a minimum of 3 points. […]"}, "almond β-glucosidase [1]": {"test_system": "almond β-glucosidase", "experiment": "β-Glucosidase inhibition assay, pH 4.8", "conditions": "5 mM test compound", "protocol": "as §1\n(§3) The release of p-nitrophenol from the substrate p-nitrophenylglycoside was measured spectrophotometrically in the presence and absence of test compound. Each assay included a known inhibitor of the enzyme as a standard. IC50 values were determined for compounds which inhibited the enzymes more than 50% at a 1 millimolar concentration.\nβ-Glucosidase Inhibition Assay\nTo 100 ul 50 mM sodium citrate buffer, pH 4.8, in a microtiter plate, 20 ul test compound in DMSO (DMSO alone in control) and 20 ul (0.017 units) β-glucosidase (Sigma) in citrate buffer were added and pre-incubated at room temperature 15 minutes. […] 50 ul 0.4 M NaOH was added and the absorption change at 405 nm was determined utilizing a Biotek EIA Autoreader. […] IC50 values were determined from the linear portion of the log concentration vs percent inhibition curve obtained from a minimum of 3 points. […]"}, "almond β-glucosidase [2]": {"test_system": "almond β-glucosidase", "experiment": "β-Glucosidase inhibition assay, pH 7.4", "conditions": "5 mM test compound", "protocol": "as §1, §2\nTo 100 ul 50 mM HEPES buffer, pH 7.4, in a microtiter plate, 20 ul test compound in DMSO (DMSO alone in control) and 40 ul (0.136 units) β-glucosidase (Sigma) in HEPES buffer were added and preincubated at room temperature 15 minutes. 40 ul 1.25 mM p-nitrophenyl-β-D-glucopyranoside in HEPES buffer was added as substrate and the absorbance change at 405 nm was monitored utilizing a Biotek EIA Autoreader. Absorption change was measured at 15 to 25 minutes (reaction is linear for at least 30 minutes). […] IC50 values were determined from the linear portion of the log concentration vs percent inhibition curve obtained from a minimum of 3 points. […]"}, "alpha mannosidase [3]": {"biological_target": "T2, alpha mannosidase (Canavalia ensiformis, UniProt C0HJB3)", "T2 sequence (C0HJB3 1-981)": "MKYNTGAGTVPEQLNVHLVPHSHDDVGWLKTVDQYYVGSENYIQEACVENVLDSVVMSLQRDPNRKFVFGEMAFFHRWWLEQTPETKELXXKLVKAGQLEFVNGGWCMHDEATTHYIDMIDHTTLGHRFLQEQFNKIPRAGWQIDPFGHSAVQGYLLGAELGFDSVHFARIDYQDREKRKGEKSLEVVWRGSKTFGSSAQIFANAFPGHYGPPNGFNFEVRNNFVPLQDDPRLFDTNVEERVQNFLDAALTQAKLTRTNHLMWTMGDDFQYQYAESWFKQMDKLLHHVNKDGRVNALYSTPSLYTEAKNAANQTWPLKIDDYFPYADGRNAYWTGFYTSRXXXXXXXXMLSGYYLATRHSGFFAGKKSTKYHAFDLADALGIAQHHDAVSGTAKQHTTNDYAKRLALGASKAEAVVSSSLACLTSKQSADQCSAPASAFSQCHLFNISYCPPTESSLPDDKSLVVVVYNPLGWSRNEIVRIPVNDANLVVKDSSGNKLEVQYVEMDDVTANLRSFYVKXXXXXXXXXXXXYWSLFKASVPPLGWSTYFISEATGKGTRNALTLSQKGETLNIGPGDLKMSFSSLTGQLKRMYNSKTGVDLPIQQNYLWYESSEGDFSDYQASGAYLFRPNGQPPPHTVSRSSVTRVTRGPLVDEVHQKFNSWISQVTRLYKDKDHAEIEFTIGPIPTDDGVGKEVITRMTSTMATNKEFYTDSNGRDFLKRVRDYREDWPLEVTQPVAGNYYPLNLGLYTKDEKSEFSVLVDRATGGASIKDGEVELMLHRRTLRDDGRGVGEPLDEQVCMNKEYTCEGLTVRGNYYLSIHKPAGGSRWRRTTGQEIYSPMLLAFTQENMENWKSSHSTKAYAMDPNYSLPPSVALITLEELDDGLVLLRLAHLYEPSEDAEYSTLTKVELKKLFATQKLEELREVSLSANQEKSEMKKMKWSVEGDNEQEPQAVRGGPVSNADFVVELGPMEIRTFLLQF", "experiment": "α-Mannosidase inhibition, pH 4.5", "conditions": "5 mM test compound, read-out: ALPHA MANNOSIDASE pH 4.5 (enzyme inhibition)", "protocol": "as §3"}, "alpha mannosidase [4]": {"biological_target": "T2, alpha mannosidase", "experiment": "α-Mannosidase inhibition, pH 7.4", "conditions": "5 mM test compound, read-out: ALPHA MANNOSIDASE pH 7.4 (enzyme inhibition)", "protocol": "as §3"}}}
{"smiles": "OC[C@H]1NC[C@H](O)[C@@H](O)[C@@H]1F", "note": "[Compound 1, 1,4-dideoxy-4-fluoronojirimycin]", "values": [{"measurement": "inhibition at 5000 µM", "setting": "yeast α-glucosidase", "value": 18, "unit": "%"}, {"measurement": "BETA GLUCOSIDASE pH 4.8 (enzyme inhibition)", "setting": "almond β-glucosidase [1]", "value": 17, "unit": "%"}, {"measurement": "BETA GLUCOSIDASE pH 7.4 (enzyme inhibition)", "setting": "almond β-glucosidase [2]", "value": 13, "unit": "%"}, {"measurement": "inhibition at 5000 µM", "setting": "alpha mannosidase [3]", "value": -2, "unit": "%"}, {"measurement": "inhibition at 5000 µM", "setting": "alpha mannosidase [4]", "value": 12, "unit": "%"}]}
{"smiles": "CCCCN1C[C@H](O)[C@@H](O)[C@H](F)[C@H]1CO", "note": "[Compound 2, N-butyl-1,4-dideoxy-4-fluoronojirimycin]", "values": [{"measurement": "inhibition at 5000 µM", "setting": "yeast α-glucosidase", "value": 28, "unit": "%"}, {"measurement": "BETA GLUCOSIDASE pH 4.8 (enzyme inhibition)", "setting": "almond β-glucosidase [1]", "value": 13, "unit": "%"}, {"measurement": "BETA GLUCOSIDASE pH 7.4 (enzyme inhibition)", "setting": "almond β-glucosidase [2]", "value": 14, "unit": "%"}, {"measurement": "inhibition at 5000 µM", "setting": "alpha mannosidase [3]", "value": -3, "unit": "%"}, {"measurement": "inhibition at 5000 µM", "setting": "alpha mannosidase [4]", "value": 6, "unit": "%"}]}
